{"source": "patent US20050222423A1", "about": "“Carboxylic acid derivative” (TAISHO PHAR[…]., LTD., priority 2001, published 2005)", "key": {"[1]": {"conditions": "pH 6.9; phosphate buffer 20 mM; 25° C.", "experimental": "1 mg of a test compound was weighed out in a threaded test tube, 1 ml of a phosphate buffer (pH: 6.8; 20 mM; ion intensity=0.15) was added thereto and, after shaking for 2 hours at room temperature under light-shielded condition, was incubated for 22 hours at 25° C. A supernatant obtained by centrifuging the test tube for 10 minutes at 3000 rpm at 25° C. was further centrifuged for 10 minutes at 11000 rpm at 25° C. The thus-obtained supernatant was diluted with a water/acetonitrile (1:1) mixture with a dilution ratio of 2 times to 21 times to prepare a sample solution (A). Also, 0.5 mg of the test compound was dissolved in 5 ml of acetonitrile, and diluted two times with acetonitrile to prepare a standard solution (B). 10 μl of the sample solution (A) and 10 μl of the standard solution (B) were subjected to measurement according to HPLC method to determine a peak area of the test compound in each of the solutions. The solubility (mg/ml) of the test compound was calculated according to the following equation using the measured values.\nColumn temperature: 40° C."}, "Flt-1": {"target": "T1, Flt-1 (Homo sapiens, UniProt P17948)", "T1 construct": "expressed in transfected cells; host or cells: NIH3T3 cells (G418-selected)", "T1 sequence (P17948 27-1338)": "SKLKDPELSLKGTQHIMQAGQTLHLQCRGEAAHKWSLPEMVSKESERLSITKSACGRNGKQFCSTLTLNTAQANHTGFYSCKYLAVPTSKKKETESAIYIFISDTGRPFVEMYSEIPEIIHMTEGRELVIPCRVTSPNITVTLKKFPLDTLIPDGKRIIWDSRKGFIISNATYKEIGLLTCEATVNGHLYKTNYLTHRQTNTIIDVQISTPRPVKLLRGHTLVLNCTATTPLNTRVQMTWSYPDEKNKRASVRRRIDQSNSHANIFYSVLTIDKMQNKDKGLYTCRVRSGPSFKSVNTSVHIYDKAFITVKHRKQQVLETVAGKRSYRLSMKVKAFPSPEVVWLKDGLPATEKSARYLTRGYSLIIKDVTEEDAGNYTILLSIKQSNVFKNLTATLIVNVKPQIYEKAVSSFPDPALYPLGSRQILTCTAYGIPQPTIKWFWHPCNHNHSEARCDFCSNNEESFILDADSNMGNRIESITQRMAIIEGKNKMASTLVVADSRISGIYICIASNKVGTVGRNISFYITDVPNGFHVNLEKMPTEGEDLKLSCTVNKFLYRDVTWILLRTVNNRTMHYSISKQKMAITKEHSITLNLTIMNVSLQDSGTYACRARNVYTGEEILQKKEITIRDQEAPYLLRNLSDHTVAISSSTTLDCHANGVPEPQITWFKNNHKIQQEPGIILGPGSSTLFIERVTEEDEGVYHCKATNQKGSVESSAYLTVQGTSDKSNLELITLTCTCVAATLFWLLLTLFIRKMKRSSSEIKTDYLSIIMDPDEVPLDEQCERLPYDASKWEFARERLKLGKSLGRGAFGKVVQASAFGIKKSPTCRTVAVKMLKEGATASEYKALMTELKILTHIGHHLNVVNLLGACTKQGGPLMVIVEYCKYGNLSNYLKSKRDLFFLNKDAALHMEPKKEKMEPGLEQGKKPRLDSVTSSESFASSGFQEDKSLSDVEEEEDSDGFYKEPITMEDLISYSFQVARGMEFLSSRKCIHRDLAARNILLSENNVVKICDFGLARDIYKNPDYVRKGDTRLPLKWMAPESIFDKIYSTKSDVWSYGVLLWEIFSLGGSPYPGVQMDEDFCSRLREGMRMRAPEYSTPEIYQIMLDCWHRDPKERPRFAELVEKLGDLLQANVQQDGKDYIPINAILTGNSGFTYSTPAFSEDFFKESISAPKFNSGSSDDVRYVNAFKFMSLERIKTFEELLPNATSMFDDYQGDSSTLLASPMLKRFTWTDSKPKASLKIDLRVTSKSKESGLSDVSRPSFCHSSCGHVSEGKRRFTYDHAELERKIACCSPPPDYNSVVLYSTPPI", "assay": "VEGF Receptor-Binding Test ([125I]-VEGF binding to NIH3T3 cells in which Flt-1 was forced to be expressed)", "conditions": "test compound concentration 1 μg/ml; [125I]-VEGF 25 pM; 90 minutes at 4° C.", "description": "According to the method described in a document (Cell Growth & Differentiation, vol. 7, pp. 213-221, 1996), the following tests were carried out.\nNIH3T3 cells, in which Flt-1 was forced to be expressed, were seeded on a 24-well collagen-coated plate (7×10^4 cells/well), and were cultured in Dulbecco's modified Eagle's medium (DMEM) containing 10% bovine serum and 200 μg/ml of Geneticin G418 for 24 hours at 37° C. under an atmosphere of 5% carbon dioxide gas. The cells were preincubated in Buffer A [containing 10 mM HEPES (N-2-hydroxyethylpiperazine-N′-2-ethanesulfonic acid) and 0.1% BSA (bovine serum albumin) in DMEM] for 30 minutes at 4° C. Subsequently, the medium was replaced with Buffer B (containing 10 mM HEPES and 0.5% BSA in DMEM). […] The radioactivity of the lysed cells in each well was measured by means of a gamma counter, and a total binding quantity of [^125I]-VEGF was calculated. Non-specific binding quantity of [^125I]-VEGF was measured by competition assay in the presence of 10 nM non-labeled VEGF. The specific binding quantity of [^125I]-VEGF was calculated from the difference between the total binding quantity of [^125I]-VEGF and non-specific binding quantity of ^125I]-VEGF. The binding inhibition index of the test compounds was calculated by the following equation."}}}
{"compound": "CCCCCCCCCCCCCCCCCCOc1ccc(CCC(=O)Nc2ccc(Oc3ccc(C(=O)O)cc3)c(C(=O)O)c2)cc1", "note": "[a, 5-Amino-2-(4-carboxyphenoxy)-N-[3-{4-(1-octadecyloxy)-phenyl}propionyl]benzoic acid]", "values": [{"measurement": "Solubility", "setting": "[1]", "result": 0.029, "unit": "µg/mL"}, {"measurement": "Inhibition Index", "setting": "Flt-1", "result": 65, "unit": "%"}]}
